Some results are limits rather than exact numbers.

The source of these data is patent publication US4210648A, “II-Aminoacyl-5,11-dihydro-6H-pyrido(2,3-B) (1,4)benzodiazepin-6-ones and salts thereof” (Boehringer Ingelheim GmbH, priority 1977, dated 1980).

One series deals with stress ulcers. Put plainly: inhibiting effect on the formation of stress ulcers in rats. Type of series: in vivo. How it is done: (§1) The compounds were examined with regard to their inhibiting effect on the formation of stress ulcers in rats and their spasmolytic effect, related to atropine, with consideration of their acute toxicity.
The inhibiting effect on the formation of stress ulcers in rats was determined according to the method of K. Takagi and S. Okabe, Jap.Journ.Pharmac. 18, pp. 9 to 18 (1968). Fed female rats with a body weight between 220 and 260 gm were individually put into small wire cages and were subsequently kept vertically submerged in a water bath which was kept constant at a temperature of 23° C. for 16 hours, so that only the heads and the breastbones of the animals were above the water surface. The test compounds were administered perorally 5 to 10 minutes before. With each substance five animals were treated. 1 ml of a 0.9% physiological sodium chloride solution or 1 ml of a 1% tylose solution was administered to the control animals in the same way. After 18 hours the animals were killed by an overdose of ethyl chloride, the stomachs were excised, cut along the big curvature and spread on a cork plate. The evaluation was carried out according to the methods of Marazzi-Uberti and Turba, Med. Exp. 4, pp. 284 to 292 (1961), and Takagi and Okabe (supra).

Series [1] is described as follows: acute toxicity after peroral administration to mice. Type of series: in vivo. As to conditions: in vivo, po, mouse, observation 14 days. How it is done: (§2) The spasmolytic effect was determined in vitro on the guinea pig colon, using the experimental arrangement according to R. Magnus, Pflugers Archiv, 102, pp. 123 (1904). Acetylcholine was taken to induce spasms, the substance for comparison was atropinesulfate. The spasticum was administered one minute before the administration of the spasmolytic substance, and the spasmolytic was allowed to take effect for 1 minute. […] The acute toxicity was determined after peroral administration of the test substance to fasted white mice with a body weight of 18 to 20 gm. The observation period was 14 days. For each dosage a group of six mice was used.

The next series concerns mouse. Described as above. The class given is in vivo. Here is the method: as §2
Another series has as its system guinea pig colon. Kind of series: spasmolytic effect in vitro on the guinea pig colon (acetylcholine-induced spasms; comparison atropinesulfate). Particulars: relative to atropine = 1. Here is the method:
as §1, §2

On to `CCN1CCCC1CNCC(=O)N1c2ccccc2C(=O)N(C)c2cccnc21` (stereo not drawn) [A, 11-{[(1-Ethyl-2-pyrrolidinyl)methylamino]acetyl}-5,11-dihydro-5-methyl-6H-pyrido[2,3-b][1,4]benzodiazepin-6-one], for which, in the series on stress ulcers, the “Ulcer-inhibition in % (rat) after peroral administr. of 12.5 mg/kg” value (“Ulcer-inhibition in % (rat) … of 12.5 mg/kg” below) came to 90%, the “Ulcer-inhibition in % (rat) after peroral administr. of 25 mg/kg” value (“Ulcer-inhibition in % (rat) … of 25 mg/kg” for short) is 90% and the “Ulcer-inhibition in % (rat) after peroral administr. of 50 mg/kg” value (“Ulcer-inhibition in % (rat) … of 50 mg/kg” below) came to 95%. In series [1], this compound showed an LD50 at 336 h of approximately 1500 mg/kg. For the same compound, the “animals died at 1500 mg/kg” value in the series on mouse is 2 out of 4. Besides, the “Spasmolysis (acetylcholine) with regard to Atropin = 1” value (shortened to “Spasmolysis (acetylcholine)”) in the series with guinea pig colon is on record as 1/250.

For the compound `COC1CCN(CC(=O)N2c3ccccc3C(=O)Nc3cccnc32)CC1` [B, 5,11-Dihydro-11-[(4-methoxypiperidino)acetyl]-6H-pyrido [2,3-b]-[1,4]benzodiazepin-6-one], in the series on stress ulcers, the “Ulcer-inhibition in % (rat) … of 12.5 mg/kg” value came to 53%, the “Ulcer-inhibition in % (rat) … of 25 mg/kg” value is listed as 79% and the “Ulcer-inhibition in % (rat) … of 50 mg/kg” value came out at 89%. Besides, the LD50 at 336 h in series [1] was more than 1000 mg/kg. Also, in the series with mouse, the “animals died at 1000 mg/kg” value is 2 out of 5. The “Spasmolysis (acetylcholine)” value in the series on guinea pig colon is on record as 1/125.

For `CC1CCCCN1CCC(=O)N1c2ccccc2C(=O)Nc2cccnc21` (stereo not drawn) [C, 5,11-Dihydro-11-[3-(2-methylpiperidino)propionyl]-6H-pyrido-[2,3-b][1,4]benzodiazepin-6-one], in the series on stress ulcers, the “Ulcer-inhibition in % (rat) … of 12.5 mg/kg” value stood at 79%, the “Ulcer-inhibition in % (rat) … of 25 mg/kg” value worked out at 84% and the “Ulcer-inhibition in % (rat) … of 50 mg/kg” value was 95%. The compound further displayed an LD50 at 336 h in series [1] of more than 1000 mg/kg. Besides, the “animals died at 1000 mg/kg” value with mouse was 1 out of 5. For the same compound, the “Spasmolysis (acetylcholine)” value in the series on guinea pig colon is 1/50.

As for `O=C1Nc2cccnc2N(C(=O)CCN2CCCCC2)c2ccccc21` [D, 5,11-Dihydro-11-(3-piperidinopropionyl)-6H-pyrido [2,3-b][1,4]-benzodiazepin-6-one], in the series on stress ulcers, the “Ulcer-inhibition in % (rat) … of 12.5 mg/kg” value is 58%, the “Ulcer-inhibition in % (rat) … of 25 mg/kg” value was determined as 69% and the “Ulcer-inhibition in % (rat) … of 50 mg/kg” value is reported as 84%. The LD50 at 336 h in series [1] was approximately 2000 mg/kg. The “animals died at 2000 mg/kg” value in the series on mouse (2000 mg/kg) is 3 out of 5. Besides, the “Spasmolysis (acetylcholine)” value in the series on guinea pig colon was 1/125.

Turning to `O=C1Nc2cccnc2N(C(=O)CCCN2CCCC2)c2ccccc21` [E, 5,11-Dihydro-11-(4-pyrrolidino-butyryl)-6H-pyrido[2,3-b][1,4]-benzodiazepin-6-one], in the series with stress ulcers, the “Ulcer-inhibition in % (rat) … of 12.5 mg/kg” value was 18%, the “Ulcer-inhibition in % (rat) … of 25 mg/kg” value was found to be 58% and the “Ulcer-inhibition in % (rat) … of 50 mg/kg” value stood at 79%. Also, in series [1], the LD50 at 336 h is more than 1500 mg/kg. The “animals died at 1500 mg/kg” value in the series with mouse is on record as 1 out of 6. Moreover, in the series on guinea pig colon, the “Spasmolysis (acetylcholine)” value is given as 1/190.
